Measured values reported in ChEMBL document CHEMBL1201862, “PubChem BioAssay data set” (2004).
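Each compound was tested at five concentrations against cells in 96-well plates for 48 hours. GI50: concentration for 50% inhibition of growth.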 The source made the active and inactive calls. Cut-off read from the data, not from the text of the source: active = GI50 up to about 1.1 µM and inactive = higher.

Columns and labels:
Experiment in all cases: DTP human tumour cell line panel, 48 h
HT-29 = tested on: HT-29
MDA-N = tested on: MDA-N
SF-295 = tested on: SF-295
DU-145 = tested on: DU-145
K562 = tested on: K562
A549 = tested on: A549
HL-60 = tested on: HL-60
MDA-MB-231 = tested on: MDA-MB-231
SW-620 = tested on: SW-620
UACC-257 = tested on: UACC-257
HCC 2998 = tested on: HCC 2998
MOLT-4 = tested on: MOLT-4
RXF 393 = tested on: RXF 393
TK-10 = tested on: TK-10
T47D = tested on: T47D
ACHN = tested on: ACHN
SK-OV-3 = tested on: SK-OV-3

SMILES	GI50 (HT-29)	GI50 (MDA-N)	GI50 (SF-295)	GI50 (DU-145)	GI50 (K562)	GI50 (A549)	GI50 (HL-60)	GI50 (MDA-MB-231)	GI50 (SW-620)	GI50 (UACC-257)	GI50 (HCC 2998)	GI50 (MOLT-4)	GI50 (RXF 393)	GI50 (TK-10)	GI50 (T47D)	GI50 (ACHN)	GI50 (SK-OV-3)
CC(=O)c1ccc(N2CCN(C3=C(Cl)C(=O)c4c(O)ccc(O)c4C3=O)CC2)cc1	2.12 µM (inactive)	3.24 µM (inactive)	18.8 µM (inactive)	17.1 µM (inactive)	2.09 µM (inactive)	17.5 µM (inactive)	0.271 µM (active)	2.51 µM (inactive)	3.02 µM (inactive)	7.6 µM (inactive)	15.6 µM (inactive)	1.68 µM (inactive)	3.02 µM (inactive)	5.14 µM (inactive)	2.91 µM (inactive)		
N=C(N)NS(=O)(=O)c1ccc(/N=N/c2c(O)c(C(=O)O)cc3ccccc23)cc1	> 100 µM (inactive)	> 100 µM (inactive)	> 100 µM (inactive)	> 100 µM (inactive)	> 100 µM (inactive)	> 100 µM (inactive)	> 100 µM (inactive)	47.4 µM (inactive)	> 100 µM (inactive)	> 100 µM (inactive)	> 100 µM (inactive)	> 100 µM (inactive)	> 100 µM (inactive)	> 100 µM (inactive)	> 100 µM (inactive)	> 100 µM (inactive)	> 100 µM (inactive)
Cc1ccc(S(=O)(=O)/N=C2/N(C)CCCS2(=O)=O)cc1	> 100 µM (inactive)	> 100 µM (inactive)	0.17 µM (active)	> 100 µM (inactive)	> 100 µM (inactive)	> 100 µM (inactive)	> 100 µM (inactive)	18 µM (inactive)	> 100 µM (inactive)	> 100 µM (inactive)	> 100 µM (inactive)	> 100 µM (inactive)	> 100 µM (inactive)	> 100 µM (inactive)	> 100 µM (inactive)	> 100 µM (inactive)	> 100 µM (inactive)
O=C1/C(=C\c2ccco2)Oc2ccccc21	> 100 µM (inactive)	> 100 µM (inactive)	> 100 µM (inactive)	> 100 µM (inactive)	> 100 µM (inactive)	> 100 µM (inactive)	39.4 µM (inactive)	> 100 µM (inactive)	> 100 µM (inactive)	> 100 µM (inactive)	> 100 µM (inactive)	23.7 µM (inactive)	> 100 µM (inactive)	> 100 µM (inactive)	72.3 µM (inactive)	> 100 µM (inactive)	> 100 µM (inactive)
COc1ccc(/N=C2\C(=S)N(c3ccc(OC)cc3)/C(=N/S(=O)(=O)c3ccccc3)N2c2ccccc2)cc1	19.9 µM (inactive)	3.93 µM (inactive)	22.2 µM (inactive)	22.1 µM (inactive)	1.02 µM (active)	34.9 µM (inactive)	0.986 µM (active)	4.79 µM (inactive)	2.62 µM (inactive)	13 µM (inactive)	> 34.5 µM (inactive)	0.953 µM (active)	5.22 µM (inactive)	14.7 µM (inactive)	1.09 µM (active)	8.85 µM (inactive)	> 39.9 µM (inactive)
OCCCCCNc1nc(O)c2[nH]cnc2n1	> 100 µM (inactive)	> 100 µM (inactive)	> 10 µM (inactive)	> 100 µM (inactive)	> 100 µM (inactive)	> 10 µM (inactive)	> 100 µM (inactive)	> 100 µM (inactive)	> 100 µM (inactive)	> 100 µM (inactive)	> 100 µM (inactive)	> 100 µM (inactive)	> 10 µM (inactive)	> 100 µM (inactive)	> 100 µM (inactive)	> 100 µM (inactive)	> 10 µM (inactive)
Cc1cc2nc(N3C(=O)/C(=C/c4ccccc4S)N=C3c3ccccc3)sc2cc1C	21 µM (inactive)	11.6 µM (inactive)	27.4 µM (inactive)	58.9 µM (inactive)	29.3 µM (inactive)	36.6 µM (inactive)	30.1 µM (inactive)	18.5 µM (inactive)	37.5 µM (inactive)	23.3 µM (inactive)	31.8 µM (inactive)	15.4 µM (inactive)	29.3 µM (inactive)	58.1 µM (inactive)	54.1 µM (inactive)	32.7 µM (inactive)	99.5 µM (inactive)
O=C1/C(=C/c2ccc(Br)s2)NC(=S)N1CN1CCOCC1	35.2 µM (inactive)	52 µM (inactive)	95.5 µM (inactive)	53.2 µM (inactive)	25.8 µM (inactive)		23.9 µM (inactive)	99.8 µM (inactive)	36.4 µM (inactive)	66.8 µM (inactive)	> 100 µM (inactive)	32.7 µM (inactive)	21.3 µM (inactive)	50.6 µM (inactive)	49.5 µM (inactive)	48 µM (inactive)	
